Laboratory results reported in article PMC13070491, “Single-nucleus transcriptomics, pharmacokinetics, and pharmacodynamics of CDK4/6 and mTOR inhibition in a Phase 0/1 trial of recurrent high-grade glioma” (Neuro-Oncology, 2025).

System: GB126, GB239 and GB86 patient-derived cell lines
Assay: In vitro single-cell RNA sequencing, analyses across the cell lines (pseudobulk differential gene expression, GSEA, non-cycling cells)
Format: cell-based, human
Conditions: pseudobulk, ribociclib versus control (DMSO)
Procedure: Patient-derived glioma stem cell lines (GSCs; GB126, GB86, and GB239) were established from resected GBM tumor tissue. Cell lines were genetically profiled for mutations and copy number aberrations using the IvySeq custom gene panel. […] GB239 was derived from a tumor sample included in this Phase 0 trial (tumor sample: 100-0039). All human GSCs were cultured as described previously.[12]
Following the fifth day of drug exposure, cells were harvested, cryopreserved to be processed at a later point, or immediately processed for single-cell RNA sequencing (10x Genomics, 3’ version 3). The single-cell RNA sequencing data were then processed via cellranger count and Seurat. Briefly, cells were filtered out based on the following criteria: minimum number of genes detected >500 and <10 000 with a maximum percentage of mitochondrial genes set to 10%. Statistical assessment was made between the malignant proportions of each cell state using a 2-sided paired t-test.
Descriptive statistics of the clinical data are included in Table 1. Comparisons between groups were conducted using a 2-sided or paired 2-sided t-test, where indicated. P < .05 was considered significant. Multiple hypothesis test corrections (ie, false discovery rate correction) were applied for snRNAseq pseudobulk differential expression analysis.

CN(C)C(=O)c1cc2cnc(Nc3ccc(N4CCNCC4)cn3)nc2n1C1CCCC1 [ribo]
log2FoldChange RTP4 (gene RTP4): 2.131
log2FoldChange (gene SAC3D1): -1.1095
log2FoldChange SEC16B (gene SEC16B): 1.622
log2FoldChange (gene SGO1): -1.732
log2FoldChange (gene SHISA8): -1.822
log2FoldChange (gene SLC2A4RG): -1.127
log2FoldChange SNCG (gene SNCG): 1.82
log2FoldChange (gene SNRPB): -1.13
log2FoldChange SP6 (gene SP6): 1.619
log2FoldChange SPTBN5 (gene SPTBN5): 1.5798
log2FoldChange (gene STARD8): -1.058
log2FoldChange (gene TCF19): -1.684
log2FoldChange (gene TEKT2): -1.108
log2FoldChange TEKT4 (gene TEKT4): 1.53
log2FoldChange TEX29 (gene TEX29): 1.88
log2FoldChange TLR8 (gene TLR8): 1.7124
log2FoldChange TM4SF4 (gene TM4SF4): 1.515
log2FoldChange TMEM88 (gene TMEM88): 1.467
log2FoldChange (gene TMPO): -1.685
log2FoldChange (gene TNFRSF13C): -1.634
log2FoldChange (gene TRPC3): -1.603
log2FoldChange (gene TUBA1B): -1.731
log2FoldChange TUSC7 (gene TUSC7): 1.959
log2FoldChange (gene TYMSOS): -1.808
log2FoldChange (gene UBE2S): -1.812
log2FoldChange (gene UHRF1): -1.689
log2FoldChange (gene WDR62): -1.744
log2FoldChange (gene XRCC2): -1.646
log2FoldChange ZCCHC23 (gene ZCCHC23): 1.565
log2FoldChange, feature AC004835.1: -1.938
log2FoldChange, feature AC011139.1: -2.033
log2FoldChange, feature AC020658.4: -2.697
log2FoldChange, feature AC027277.1: -2.37
log2FoldChange, feature AC027627.1: -3.761
log2FoldChange, feature AC079753.2: -3.036
log2FoldChange, feature AC084757.2: -2.199
log2FoldChange, feature AC087721.1: -2.244
log2FoldChange, feature AC097534.1: -1.917
log2FoldChange, feature AC099845.1: -2.325
log2FoldChange, feature AF233439.1: -2.426
log2FoldChange, feature AL023803.2: -2.112
log2FoldChange, feature AL136528.1: -3.4157
log2FoldChange, feature AL606468.1: -2.361
log2FoldChange, feature AL606500.1: -4.456
log2FoldChange, feature ANLN: -2.17
log2FoldChange, feature APOLD1: -2.2948
log2FoldChange, feature ARHGEF16: -2.5327
log2FoldChange, feature ARHGEF39: -2.785
log2FoldChange, feature ASF1B: -2.413
log2FoldChange, feature ASPM: -2.923
log2FoldChange, feature AURKA: -1.946
log2FoldChange, feature AURKB: -5.69
log2FoldChange, feature BIRC5: -4.128
log2FoldChange, feature BUB1B: -2.255
log2FoldChange, feature C1QL1: -2.176
log2FoldChange, feature CCNA1: -1.944
log2FoldChange, feature CCNA2: -3.66
log2FoldChange, feature CCNB1: -2.309
log2FoldChange, feature CCNB2: -2.58
log2FoldChange, feature CDC20: -2.615
log2FoldChange, feature CDC25C: -2.251
log2FoldChange, feature CDC45: -1.967
log2FoldChange, feature CDCA2: -2.288
log2FoldChange, feature CDCA3: -4.424
log2FoldChange, feature CDCA5: -2.481
log2FoldChange, feature CDCA8: -2.683
log2FoldChange, feature CDK1: -3.117
log2FoldChange, feature CDT1: -2.6933
log2FoldChange, feature CENPE: -2.304
log2FoldChange, feature CENPF: -2.646
log2FoldChange, feature CENPM: -2.763
log2FoldChange, feature CENPU: -1.962
log2FoldChange, feature CEP55: -2.857
log2FoldChange, feature CIT: -1.908
log2FoldChange, feature CKAP2L: -3.667
log2FoldChange, feature COL2A1: -2.114
log2FoldChange, feature CSRP3-AS1: -2.408
log2FoldChange, feature DEPDC1: -2.44
log2FoldChange, feature DHRS2: -3.141
log2FoldChange, feature DIAPH3: -2.737
log2FoldChange, feature DIAPH3-AS1: -2.318
log2FoldChange, feature DLGAP5: -4.307
log2FoldChange, feature DUSP9: -1.8912
log2FoldChange, feature E2F1: -2.143
log2FoldChange, feature E2F2: -2.717
log2FoldChange, feature E2F7: -1.962
log2FoldChange, feature E2F8: -4.471
log2FoldChange, feature EMILIN3: -2.469
log2FoldChange, feature ESCO2: -3.335
log2FoldChange, feature ESPL1: -2.787
log2FoldChange, feature EXO1: -2.588
log2FoldChange, feature FAM72C: -1.941
log2FoldChange, feature FAM83D: -2.106
log2FoldChange, feature FAM111B: -3.61
log2FoldChange, feature FBLN7: -2.095
log2FoldChange, feature FBXO5: -2.254
log2FoldChange, feature FOXM1: -3.356
log2FoldChange, feature FOXN4: -2.7907
log2FoldChange, feature GTSE1: -3.691
log2FoldChange, feature H2AFX: -1.9706
log2FoldChange, feature HIST1H1B: -4.86
log2FoldChange, feature HIST1H1D: -3.125
log2FoldChange, feature HIST1H1E: -2.149
log2FoldChange, feature HIST1H2AB: -3.666
log2FoldChange, feature HIST1H2AD: -2.176
log2FoldChange, feature HIST1H2AG: -3.09
log2FoldChange, feature HIST1H2AH: -3.181
log2FoldChange, feature HIST1H2AI: -3.193
log2FoldChange, feature HIST1H2AJ: -3.606
log2FoldChange, feature HIST1H2AK: -2.038
log2FoldChange, feature HIST1H2AL: -4.067
log2FoldChange, feature HIST1H2AM: -2.962
log2FoldChange, feature HIST1H2BB: -4.24
log2FoldChange, feature HIST1H2BF: -2.791
log2FoldChange, feature HIST1H2BH: -2.674
log2FoldChange, feature HIST1H2BI: -3.141
log2FoldChange, feature HIST1H2BK: -2.1572
log2FoldChange, feature HIST1H2BL: -3.055
log2FoldChange, feature HIST1H2BM: -3.899
log2FoldChange, feature HIST1H2BO: -4.102
log2FoldChange, feature HIST1H3A: -2.494
log2FoldChange, feature HIST1H3B: -4.012
log2FoldChange, feature HIST1H3C: -3.43
log2FoldChange, feature HIST1H3D: -3.164
log2FoldChange, feature HIST1H3F: -4.011
log2FoldChange, feature HIST1H3G: -5.89
log2FoldChange, feature HIST1H3I: -2.396
log2FoldChange, feature HIST1H4A: -2.4627
log2FoldChange, feature HIST1H4B: -3.363
log2FoldChange, feature HIST1H4C: -2.564
log2FoldChange, feature HIST1H4D: -2.3219
log2FoldChange, feature HIST1H4L: -3.364
log2FoldChange, feature HIST2H2AA4: -2.973
log2FoldChange, feature HIST2H2AB: -2.432
log2FoldChange, feature HIST2H2AC: -2.094
log2FoldChange, feature HIST2H3D: -3.112
log2FoldChange, feature HIST2H4B: -3.0547
log2FoldChange, feature HJURP: -3.812
log2FoldChange, feature HMGB2: -3.4975
log2FoldChange, feature HMGN2: -1.988
log2FoldChange, feature HMMR: -2.398
log2FoldChange, feature HMMR-AS1: -1.986
log2FoldChange, feature IQGAP3: -3.825
log2FoldChange, feature KIF2C: -3.46
log2FoldChange, feature KIF4A: -3.264
log2FoldChange, feature KIF11: -2.445
log2FoldChange, feature KIF14: -1.93
log2FoldChange, feature KIF15: -2.295
log2FoldChange, feature KIF18B: -3.458
log2FoldChange, feature KIF20A: -5.621
log2FoldChange, feature KIF23: -2.582
log2FoldChange, feature KIFC1: -3.063
log2FoldChange, feature KNL1: -2.569
log2FoldChange, feature LHX2: -2.082
log2FoldChange, feature LINC00243: -2.438
log2FoldChange, feature LINC01647: -5.161
log2FoldChange, feature LINC01775: -2.182
log2FoldChange, feature LMNB1: -1.981
log2FoldChange, feature MCM10: -2.2
log2FoldChange, feature MELK: -2.093
log2FoldChange, feature MIR924HG: -2.274
log2FoldChange, feature MKI67: -6.243
log2FoldChange, feature MUC22: -3.844
log2FoldChange, feature MXD3: -2.803
log2FoldChange, feature MYB: -2.501
log2FoldChange, feature MYBL2: -3.875
log2FoldChange, feature NCAPG: -2.9227
log2FoldChange, feature NCAPH: -2.746
log2FoldChange, feature NDC80: -2.667
log2FoldChange, feature NEIL3: -3.743
log2FoldChange, feature NEK2: -3.576
log2FoldChange, feature NEURL1B: -1.929
log2FoldChange, feature NMU: -2.574
log2FoldChange, feature NRM: -1.8865
log2FoldChange, feature NRTN: -3.311
log2FoldChange, feature NT5DC4: -2.34
log2FoldChange, feature NUSAP1: -3.196
log2FoldChange, feature NXPH2: -2.198
log2FoldChange, feature PAK6: -1.969
log2FoldChange, feature PAPOLB: -2.347
log2FoldChange, feature PBK: -3.281
log2FoldChange, feature PCLAF: -3.5822
log2FoldChange, feature PCNA: -1.969
log2FoldChange, feature PIF1: -3.124
log2FoldChange, feature PIMREG: -3.009
log2FoldChange, feature PKMYT1: -2.904
log2FoldChange, feature PLK1: -3.608
log2FoldChange, feature PRC1: -2.44
log2FoldChange, feature PRIM1: -2.274
log2FoldChange, feature PTTG1: -2.767
log2FoldChange, feature RAD51AP1: -1.918
log2FoldChange, feature RAD54L: -1.967
log2FoldChange, feature RPP25: -1.919
log2FoldChange, feature RRM2: -5.156
log2FoldChange, feature SAPCD2: -1.989
log2FoldChange, feature SDC1: -2.261
log2FoldChange, feature SHCBP1: -2.035
log2FoldChange, feature SKA1: -3.026
log2FoldChange, feature SLC7A3: -2.68
log2FoldChange, feature SPAG5: -2.024
log2FoldChange, feature SPC24: -2.603
log2FoldChange, feature SPC25: -3.836
log2FoldChange, feature TACC3: -2.439
log2FoldChange, feature TICRR: -2.318
log2FoldChange, feature TK1: -2.815
log2FoldChange, feature TMPO-AS1: -2.127
log2FoldChange, feature TMSB15A: -2.211
log2FoldChange, feature TOP2A: -4.082
log2FoldChange, feature TP73: -3.442
log2FoldChange, feature TPX2: -2.42
log2FoldChange, feature TROAP: -3.212
log2FoldChange, feature TTK: -1.967
log2FoldChange, feature TYMS: -2.957
log2FoldChange, feature UBE2C: -3.754
log2FoldChange, feature UBE2T: -1.955
log2FoldChange, feature WDR76: -2.235
log2FoldChange, feature ZWINT: -1.901
